Data as given in US20060046968A1, “Prodrug substituted benzoxazoles as estrogenic agents” (priority 2004, published 2006).
Several values for one entry are separate records, joined by “and”; a condition that tells them apart may be missing. Equal entries are not always repeated.

Experiments:
Assay type in all cases: in vivo
[1] = system: ovulation (number of oocytes ovulated); assay: Ovulation inhibition test procedure; settings: 50 mg/kg
Description: The test procedure is used to determine whether test compounds can inhibit or change the timing of ovulation. It can also be used to determine the number of oocytes ovulated [Lundeen, et al., J Steroid Biochem Mol Biol 78: 137-143 (2001)]. The following data were obtained from representative metabolites of compounds from the invention (Table 22).

[2] = system: Sexually immature Sprague-Dawley rats; assay: Rat uterotrophic test procedure (Procedure 1)
morphine-addicted rats = assay: Rat hot flush test procedure (tail skin temperature after naloxone)
Description: The effect of test compounds on hot flushes can be evaluated in a standard pharmacological test procedure that measures the ability of a test compound to blunt the increase in tail skin temperature, which occurs as morphine-addicted rats are acutely withdrawn from the drug using naloxone [Merchenthaler, et al., Maturitas 30: 307-16 (1998)]. It can also be used to detect estrogen receptor antagonist activity by co-dosing test compound with the reference estrogen. The following data were obtained from representative metabolites of compounds of the invention (Table 7).

Female Mongolian gerbils = assay: Transient global ischemia in the Mongolian gerbil: neurogranin mRNA in hippocampus; settings: gerbil hippocampus after 5 min global ischemia; s.c. daily
Method: Transient global ischemia in the Mongolian gerbil. The effect of test compounds on preventing or treating brain injury in response to oxygen deprivation/reperfusion were measured using the following test procedure.
Female Mongolian gerbils (60-80 g; Charles River Laboratories, Kingston, N.Y.) were housed in the Wyeth-Ayerst animal care facility Association for Assessment and Acreditation of Laboratory Animal Care (AAALAC) certified with a 12-hour light, 12-hour dark photoperiod and free access to tap water and a low-estrogen casein diet (Purina®; Richmond, Ind.). After acclimation (3-5 days), gerbils were anesthetized with isoflurane (2-3% mixture with O2), ovariectomized (Day 0). […] On Day 6, gerbils (n=4-5/group) were anesthetized with isoflurane, the common carotid arteries visualized via a mid-line neck incision and both arteries simultaneously occluded for 5 minutes with non-traumatic micro aneurysm clips. […]
The degree of neuronal protection was evaluated by in situ hybridization analysis of neurogranin mRNA. […]
Neurogranin mRNA was selected for these studies because it is highly expressed in the hippocampal neurons including CA1, but absent in glia and other cell types present in this brain region. […] The results from 6 sections (40 μm apart) per animal were averaged and statistically evaluated. […]

[3] = compound 2 mg/rat + 17α-ethinyl, 17β-estradiol 0.06 μg/rat s.c. (antagonist mode)

SMILES | Number of oocytes (mean ± SEM) [1] | mean uterine weight ± SEM [2, 3] | Temperature change 15 minutes after naloxone injection (mean ± SEM) (morphine-addicted rats; 15 mg/kg) | mean uterine weight ± SEM ([2]; reference estrogen alone, 0.06 μg/rat s.c., days 19-21) | Temperature change 15 minutes after naloxone injection (mean ± SEM) (morphine-addicted rats; 0.3 mg/kg) | Neurogranin mRNA (mean ± stdev) (Female Mongolian gerbils)
Oc1ccc(-c2nc3cc(O)cc(Br)c3o2)cc1 [Example 20, 7-BROMO-2-(4-HYDROXYPHENYL)-1,3-BENZOXAZOL-5-OL] | 14.13 ± 0.79 | 95.9 ± 5.5 mg | 5.28 ± 0.71 |  |  | 
C#C[C@]1(O)CC[C@H]2[C@@H]3CCc4cc(O)ccc4[C@H]3CC[C@@]21C [17α-ethinyl, 17β-estradiol, 17α-ethinyl-17β-estradiol, reference compound] |  |  |  | 104.7 ± 5.4 mg and 85.5 ± 3.1 mg | 2.12 ± 1.14 | 
N#Cc1cc(O)cc2nc(-c3ccc(O)cc3)oc12 [Example 41, 5-HYDROXY-2-(4-HYDROXYPHENYL)-1,3-BENZOXAZOL-7-CARBONITRILE] |  | 76.6 ± 3.0 mg | 5.25 ± 0.72 |  |  | 43.0 ± 21.8 arbitrary units
